Key:
Experiment in all cases: relative viability (nuclei count vs DMSO), 5 days (fraction); higher = more cells survive
[1] = compound: CC1=CC=C(C=C1)C(=O)CN2C3=C(CCCC3)SC2=N [Pifithrin_alpha] + Nc1nc2[nH]cc(CCc3ccc(C(=O)N[C@@H](CCC(=O)O)C(=O)O)cc3)c2c(=O)[nH]1 [Pemetrexed] (partner 0.2 µM)
In short: (§1)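 For relative viability, nuclei counts in treated wells were divided by those in vehicle wells. Lung cancer cell lines had been pin-tool dosed in 1536-well plates the day after seeding and cultured for 5 days, then fixed and stained in one step (final 0.05% Triton X-100, 1% formaldehyde, 1 ug/ml Hoechst) and imaged at 4×. Doses were one drug alone or a fixed anchor-drug dose plus five library-drug doses (not always all listed) in √10 steps, and values are duplicate-plate medians.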

Bemcentinib + Linsitinib = compound: Nc1nc(Nc2ccc3c(c2)CC[C@@H](N2CCCC2)CC3)nn1-c1cc2c(nn1)-c1ccccc1CCC2 [Bemcentinib] + C[C@]1(O)C[C@@H](c2nc(-c3ccc4ccc(-c5ccccc5)nc4c3)c3c(N)nccn32)C1 [Linsitinib] (partner 1 µM)
In short: as §1

[2] = compound: CC1=CC=C(C=C1)C(=O)CN2C3=C(CCCC3)SC2=N [Pifithrin_alpha] + O=C(CCCCCCC(=O)Nc1ccccc1)NO [Vorinostat] (partner 1 µM)
In short: as §1

Axitinib + Vorinostat = compound: CNC(=O)c1ccccc1Sc1ccc2c(/C=C/c3ccccn3)n[nH]c2c1 [Axitinib] + O=C(CCCCCCC(=O)Nc1ccccc1)NO [Vorinostat] (partner 1 µM)
In short: as §1

Cell Line: NCI-H650
- relative viability ([1]; first compound 3.162 µM): 0.938
- relative viability ([1]; first compound 10 µM): 0.967
- relative viability ([1]; first compound 31.62 µM): 0.831
- relative viability ([1]; first compound 100 µM): 0.789
- relative viability (Bemcentinib + Linsitinib; first compound 0.04 µM): 0.976
- relative viability (Bemcentinib + Linsitinib; first compound 0.1265 µM): 0.982
- relative viability (Bemcentinib + Linsitinib; first compound 0.4 µM): 0.974
- relative viability (Bemcentinib + Linsitinib; first compound 1.265 µM): 0.823
- relative viability (Bemcentinib + Linsitinib; first compound 4 µM): 0.774
- relative viability ([2]; first compound 3.162 µM): 0.439
- relative viability ([2]; first compound 10 µM): 0.395
- relative viability ([2]; first compound 31.62 µM): 0.305
- relative viability ([2]; first compound 100 µM): 0.399
- relative viability (Axitinib + Vorinostat; first compound 0.005 µM): 0.371
- relative viability (Axitinib + Vorinostat; first compound 0.01581 µM): 0.452
- relative viability (Axitinib + Vorinostat; first compound 0.05 µM): 0.448
- relative viability (Axitinib + Vorinostat; first compound 0.1581 µM): 0.459
- relative viability (Axitinib + Vorinostat; first compound 0.5 µM): 0.366

Source: the supplement of paper PMC10307832
